Assay [1] concerns the target T1, Muscarinic acetylcholine receptor M5 (Homo sapiens, UniProt P08912).
T1 sequence (P08912 whole entry): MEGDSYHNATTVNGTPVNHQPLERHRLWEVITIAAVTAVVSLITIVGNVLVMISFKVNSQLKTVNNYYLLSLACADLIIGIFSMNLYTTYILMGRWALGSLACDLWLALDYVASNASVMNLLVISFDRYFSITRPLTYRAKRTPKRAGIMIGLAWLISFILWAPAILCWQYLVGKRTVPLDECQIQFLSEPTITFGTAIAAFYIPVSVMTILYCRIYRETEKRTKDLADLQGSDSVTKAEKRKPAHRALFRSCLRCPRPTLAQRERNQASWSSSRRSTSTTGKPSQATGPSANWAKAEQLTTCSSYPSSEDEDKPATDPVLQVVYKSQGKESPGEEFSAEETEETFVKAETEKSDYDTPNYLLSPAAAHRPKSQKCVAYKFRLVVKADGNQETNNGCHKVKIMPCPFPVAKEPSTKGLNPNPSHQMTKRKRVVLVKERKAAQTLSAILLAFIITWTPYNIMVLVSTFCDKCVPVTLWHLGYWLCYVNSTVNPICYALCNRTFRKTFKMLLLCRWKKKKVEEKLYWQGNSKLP

The target in assay [2] is T2, Muscarinic acetylcholine receptor M2 (Homo sapiens, UniProt P08172).
T2 sequence (P08172 whole entry): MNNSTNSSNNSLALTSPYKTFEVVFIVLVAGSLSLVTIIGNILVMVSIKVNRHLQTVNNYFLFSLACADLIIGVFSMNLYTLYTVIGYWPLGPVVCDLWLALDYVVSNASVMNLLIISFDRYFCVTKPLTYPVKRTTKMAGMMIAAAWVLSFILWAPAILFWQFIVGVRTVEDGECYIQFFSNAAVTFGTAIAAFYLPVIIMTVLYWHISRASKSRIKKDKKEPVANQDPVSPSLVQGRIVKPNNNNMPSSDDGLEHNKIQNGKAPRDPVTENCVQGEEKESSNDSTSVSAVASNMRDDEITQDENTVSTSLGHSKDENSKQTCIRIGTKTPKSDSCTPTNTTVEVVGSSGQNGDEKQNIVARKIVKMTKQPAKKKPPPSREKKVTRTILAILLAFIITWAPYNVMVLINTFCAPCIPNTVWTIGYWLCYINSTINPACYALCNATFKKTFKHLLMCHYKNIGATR

Assay [3] concerns the target T3, Muscarinic acetylcholine receptor M4 (Homo sapiens, UniProt P08173).
T3 sequence (P08173 whole entry): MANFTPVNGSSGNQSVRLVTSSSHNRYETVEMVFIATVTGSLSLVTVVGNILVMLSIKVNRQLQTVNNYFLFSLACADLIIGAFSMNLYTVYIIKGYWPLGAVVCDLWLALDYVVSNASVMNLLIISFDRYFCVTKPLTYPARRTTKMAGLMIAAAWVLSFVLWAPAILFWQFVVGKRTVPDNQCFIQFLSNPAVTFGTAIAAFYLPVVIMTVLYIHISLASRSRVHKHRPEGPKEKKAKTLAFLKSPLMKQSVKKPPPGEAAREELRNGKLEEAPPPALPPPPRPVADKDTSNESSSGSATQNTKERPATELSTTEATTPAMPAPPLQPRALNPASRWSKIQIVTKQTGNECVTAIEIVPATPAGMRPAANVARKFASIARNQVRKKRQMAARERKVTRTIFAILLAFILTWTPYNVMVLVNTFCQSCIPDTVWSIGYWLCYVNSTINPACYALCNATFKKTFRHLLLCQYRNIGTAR

The structures appear in SMILES notation. Where “and” joins values, the source holds several entries; their conditions need not be identical. Equal values may be shown once.

The term Ki denotes a measure of affinity in units of concentration, obtained from inhibition or displacement. For the compound `C[N+]1(C)CCC(OC(=O)C(c2ccccc2)c2ccccc2)CC1`, in assay [1], the Ki came to 1.05 nM.
As for `CCCN(CCC)CC1CCCCN1CCNC(=O)N1c2ccccc2C(=O)Nc2cccnc21` (stereo not drawn), the inhibition constant Ki in assay [2] stood at 6.03 nM; in assay [3] it was 10 nM; in assay [1] it was 537 nM.
For `CCN(CC)CC1CCCCN1CC(=O)N1c2ccccc2NC(=O)c2ccccc21` (single isomer, unassigned; (+)) [CAS_121029-35-4], the Ki in assay [2] was found to be 55 nM; in assay [3] it was 162 nM; in assay [1], 3020 nM.
For `O[Si](CCCN1CCCCC1)(c1ccc(F)cc1)C1CCCCC1` (stereo not drawn) [CAS_5311091], in that order: 132 nM, 31.6 nM and 93.3 nM.
On to `C[C@H]1OC(=O)C2C[C@H]3CCCC[C@@H]3[C@@H](/C=C/[C@@H]3CCC[C@H](C)N3C)C21` (stereo partly drawn) [HIMBACINE], for which the figures for the inhibition constant Ki in assay [2] and in assay [1] were 10 nM and 490 nM, respectively.
As for `COc1ccccc1CNCCCCCCNCCCCCCCCNCCCCCCNCc1ccccc1OC` [METHOCTRAMINE], the Ki was determined as 31.6 nM in assay [3] and 135 nM in assay [1].
As for `CCN(CC)CCCCC1CCN(CC(=O)N2c3ccccc3C(=O)Nc3cccnc32)CC1` [NSC_129989], the inhibition constant Ki in assay [3] was found to be 6.46 nM; in assay [1], 832 nM.
With `OC(C#CCN1CCCCC1)(c1ccccc1)C1CCCCC1` (stereo not drawn) [NSC_2054314], the Ki in assay [2] is 20.9 nM and 72.4 nM; in assay [3], 3.02 nM and 19.5 nM.
